Assay results published in PubChem BioAssay (NCI).
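Assay format: 96-well plates, 48-hour exposure. Here, GI50 denotes the concentration required for 50% inhibition of growth. At the TGI there is no net growth.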

How the values were obtained:
Assay in all cases: DTP human tumour cell line panel, 48 h
CAKI-1 renal = test system: CAKI-1 renal
LOX IMVI melanoma = test system: LOX IMVI melanoma
MALME-3M melanoma = test system: MALME-3M melanoma
MDA-MB-435 = test system: MDA-MB-435
PC-3 prostate = test system: PC-3 prostate
UACC-257 melanoma = test system: UACC-257 melanoma
SF-295 CNS = test system: SF-295 CNS
NCI/ADR-RES ovarian = test system: NCI/ADR-RES ovarian
HS 578T breast = test system: HS 578T breast
NCI-H23 lung = test system: NCI-H23 lung
HT29 colon = test system: HT29 colon
NCI-H522 lung = test system: NCI-H522 lung
HL-60(TB) leukemia = test system: HL-60(TB) leukemia
SK-OV-3 ovarian = test system: SK-OV-3 ovarian
M14 melanoma = test system: M14 melanoma
HCT-116 colon = test system: HCT-116 colon
SK-MEL-2 melanoma = test system: SK-MEL-2 melanoma
U251 CNS = test system: U251 CNS
UACC-62 melanoma = test system: UACC-62 melanoma
NCI-H460 lung = test system: NCI-H460 lung
786-0 renal = test system: 786-0 renal
SF-539 CNS = test system: SF-539 CNS
SK-MEL-28 melanoma = test system: SK-MEL-28 melanoma
SF-268 CNS = test system: SF-268 CNS
SK-MEL-5 melanoma = test system: SK-MEL-5 melanoma
HOP-92 NSCLC = test system: HOP-92 NSCLC
KM12 colon = test system: KM12 colon
CCRF-CEM leukemia = test system: CCRF-CEM leukemia
T-47D breast = test system: T-47D breast
COLO 205 colon = test system: COLO 205 colon
MDA-MB-231 breast = test system: MDA-MB-231 breast
SNB-19 CNS = test system: SNB-19 CNS
HCT-15 colon = test system: HCT-15 colon
MOLT-4 leukemia = test system: MOLT-4 leukemia
OVCAR-8 ovarian = test system: OVCAR-8 ovarian
UO-31 renal = test system: UO-31 renal
K-562 leukemia = test system: K-562 leukemia
IGROV1 ovarian = test system: IGROV1 ovarian
SR leukemia = test system: SR leukemia
OVCAR-4 ovarian = test system: OVCAR-4 ovarian
A498 renal = test system: A498 renal
SN12C renal = test system: SN12C renal
ACHN renal = test system: ACHN renal
MCF7 breast = test system: MCF7 breast
SNB-75 CNS = test system: SNB-75 CNS
OVCAR-5 ovarian = test system: OVCAR-5 ovarian
RPMI-8226 leukemia = test system: RPMI-8226 leukemia
OVCAR-3 ovarian = test system: OVCAR-3 ovarian
SW-620 colon = test system: SW-620 colon
BT-549 breast = test system: BT-549 breast
DU-145 prostate = test system: DU-145 prostate
EKVX NSCLC = test system: EKVX NSCLC
HOP-62 NSCLC = test system: HOP-62 NSCLC
TK-10 renal = test system: TK-10 renal
A549 NSCLC = test system: A549 NSCLC
HCC-2998 colon = test system: HCC-2998 colon

**Q.** For `COc1cc(C2=NOC(c3cc(OC)c(OC)c(OC)c3)C2)ccc1OCCCCOc1cc2c(cc1OC)C(=O)N1CCC[C@H]1C=N2` (stereo partly specified), which GI50 (CAKI-1 renal) is on record?
**A.** 245 nM

**Q.** What about the TGI (CAKI-1 renal) of the same compound?
**A.** 631 nM

**Q.** What about the GI50 (LOX IMVI melanoma) of the same compound?
**A.** 215 nM

**Q.** What about the TGI (LOX IMVI melanoma) of the same compound?
**A.** 495 nM

**Q.** What about the GI50 (MALME-3M melanoma) of the same compound?
**A.** 197 nM

**Q.** And the TGI (MALME-3M melanoma)?
**A.** 364 nM

**Q.** What about the GI50 (MDA-MB-435) of the same compound?
**A.** 179 nM

**Q.** And the TGI (MDA-MB-435)?
**A.** 371 nM

**Q.** And the GI50 (PC-3 prostate)?
**A.** 347 nM

**Q.** And the TGI (PC-3 prostate)?
**A.** 3100 nM

**Q.** What about the GI50 (UACC-257 melanoma) of the same compound?
**A.** 286 nM

**Q.** And the TGI (UACC-257 melanoma)?
**A.** 727 nM

**Q.** What about the GI50 (SF-295 CNS) of the same compound?
**A.** 327 nM

**Q.** What about the TGI (SF-295 CNS) of the same compound?
**A.** 1280 nM

**Q.** What about the GI50 (NCI/ADR-RES ovarian) of the same compound?
**A.** 2820 nM

**Q.** And the TGI (NCI/ADR-RES ovarian)?
**A.** 9350 nM

**Q.** And the GI50 (HS 578T breast)?
**A.** 234 nM

**Q.** What about the TGI (HS 578T breast) of the same compound?
**A.** 681 nM

**Q.** And the GI50 (NCI-H23 lung)?
**A.** 241 nM

**Q.** And the TGI (NCI-H23 lung)?
**A.** 559 nM

**Q.** What about the GI50 (HT29 colon) of the same compound?
**A.** 358 nM

**Q.** What about the TGI (HT29 colon) of the same compound?
**A.** > 33200 nM

**Q.** And the GI50 (NCI-H522 lung)?
**A.** 217 nM

**Q.** What about the TGI (NCI-H522 lung) of the same compound?
**A.** 2130 nM

**Q.** And the GI50 (HL-60(TB) leukemia)?
**A.** 309 nM

**Q.** And the TGI (HL-60(TB) leukemia)?
**A.** 6500 nM

**Q.** What about the GI50 (SK-OV-3 ovarian) of the same compound?
**A.** 446 nM

**Q.** And the TGI (SK-OV-3 ovarian)?
**A.** 3810 nM

**Q.** And the GI50 (M14 melanoma)?
**A.** 206 nM

**Q.** And the TGI (M14 melanoma)?
**A.** 432 nM

**Q.** And the GI50 (HCT-116 colon)?
**A.** 216 nM

**Q.** What about the TGI (HCT-116 colon) of the same compound?
**A.** 575 nM

**Q.** What about the GI50 (SK-MEL-2 melanoma) of the same compound?
**A.** 241 nM

**Q.** And the TGI (SK-MEL-2 melanoma)?
**A.** 612 nM

**Q.** And the GI50 (U251 CNS)?
**A.** 315 nM

**Q.** What about the TGI (U251 CNS) of the same compound?
**A.** 1100 nM

**Q.** And the GI50 (UACC-62 melanoma)?
**A.** 171 nM

**Q.** What about the TGI (UACC-62 melanoma) of the same compound?
**A.** 335 nM

**Q.** And the GI50 (NCI-H460 lung)?
**A.** 275 nM

**Q.** And the GI50 (786-0 renal)?
**A.** 282 nM

**Q.** What about the TGI (786-0 renal) of the same compound?
**A.** 913 nM

**Q.** And the GI50 (SF-539 CNS)?
**A.** 277 nM

**Q.** And the TGI (SF-539 CNS)?
**A.** 894 nM

**Q.** What about the GI50 (SK-MEL-28 melanoma) of the same compound?
**A.** 229 nM

**Q.** What about the TGI (SK-MEL-28 melanoma) of the same compound?
**A.** 490 nM

**Q.** What about the GI50 (SF-268 CNS) of the same compound?
**A.** 400 nM

**Q.** What about the TGI (SF-268 CNS) of the same compound?
**A.** 5680 nM

**Q.** And the GI50 (SK-MEL-5 melanoma)?
**A.** 168 nM

**Q.** And the TGI (SK-MEL-5 melanoma)?
**A.** 319 nM

**Q.** What about the GI50 (HOP-92 NSCLC) of the same compound?
**A.** 339 nM

**Q.** What about the TGI (HOP-92 NSCLC) of the same compound?
**A.** 3080 nM

**Q.** What about the GI50 (KM12 colon) of the same compound?
**A.** 298 nM

**Q.** And the TGI (KM12 colon)?
**A.** 882 nM

**Q.** And the GI50 (CCRF-CEM leukemia)?
**A.** 164 nM

**Q.** And the TGI (CCRF-CEM leukemia)?
**A.** 466 nM

**Q.** What about the GI50 (T-47D breast) of the same compound?
**A.** 481 nM

**Q.** And the GI50 (COLO 205 colon)?
**A.** 245 nM

**Q.** And the TGI (COLO 205 colon)?
**A.** 586 nM

**Q.** And the GI50 (MDA-MB-231 breast)?
**A.** 235 nM

**Q.** And the TGI (MDA-MB-231 breast)?
**A.** 750 nM

**Q.** What about the GI50 (SNB-19 CNS) of the same compound?
**A.** 1310 nM

**Q.** And the GI50 (HCT-15 colon)?
**A.** 1460 nM

**Q.** And the TGI (HCT-15 colon)?
**A.** 5430 nM

**Q.** And the GI50 (MOLT-4 leukemia)?
**A.** 299 nM

**Q.** What about the GI50 (OVCAR-8 ovarian) of the same compound?
**A.** 390 nM

**Q.** And the TGI (OVCAR-8 ovarian)?
**A.** 10900 nM

**Q.** What about the GI50 (UO-31 renal) of the same compound?
**A.** 239 nM

**Q.** And the TGI (UO-31 renal)?
**A.** 745 nM

**Q.** And the GI50 (K-562 leukemia)?
**A.** 1720 nM

**Q.** And the GI50 (IGROV1 ovarian)?
**A.** 243 nM

**Q.** And the TGI (IGROV1 ovarian)?
**A.** 537 nM

**Q.** And the GI50 (SR leukemia)?
**A.** 279 nM

**Q.** And the GI50 (OVCAR-4 ovarian)?
**A.** 439 nM

**Q.** And the TGI (OVCAR-4 ovarian)?
**A.** 8640 nM

**Q.** And the GI50 (A498 renal)?
**A.** 194 nM

**Q.** What about the TGI (A498 renal) of the same compound?
**A.** 396 nM

**Q.** And the GI50 (SN12C renal)?
**A.** 358 nM

**Q.** And the TGI (SN12C renal)?
**A.** 3510 nM

**Q.** What about the GI50 (ACHN renal) of the same compound?
**A.** 243 nM

**Q.** And the TGI (ACHN renal)?
**A.** 523 nM

**Q.** What about the GI50 (MCF7 breast) of the same compound?
**A.** 255 nM

**Q.** And the TGI (MCF7 breast)?
**A.** 24400 nM

**Q.** What about the GI50 (SNB-75 CNS) of the same compound?
**A.** 350 nM

**Q.** And the TGI (SNB-75 CNS)?
**A.** 1600 nM

**Q.** What about the GI50 (OVCAR-5 ovarian) of the same compound?
**A.** 400 nM

**Q.** And the TGI (OVCAR-5 ovarian)?
**A.** 1260 nM

**Q.** What about the GI50 (RPMI-8226 leukemia) of the same compound?
**A.** 271 nM

**Q.** What about the TGI (RPMI-8226 leukemia) of the same compound?
**A.** 682 nM

**Q.** What about the GI50 (OVCAR-3 ovarian) of the same compound?
**A.** 322 nM

**Q.** And the TGI (OVCAR-3 ovarian)?
**A.** 2510 nM

**Q.** And the GI50 (SW-620 colon)?
**A.** 246 nM

**Q.** What about the TGI (SW-620 colon) of the same compound?
**A.** 855 nM

**Q.** And the GI50 (BT-549 breast)?
**A.** 156 nM

**Q.** What about the TGI (BT-549 breast) of the same compound?
**A.** 385 nM

**Q.** What about the GI50 (DU-145 prostate) of the same compound?
**A.** 432 nM

**Q.** What about the TGI (DU-145 prostate) of the same compound?
**A.** 3280 nM

**Q.** And the GI50 (EKVX NSCLC)?
**A.** 471 nM

**Q.** And the TGI (EKVX NSCLC)?
**A.** 5430 nM

**Q.** What about the GI50 (HOP-62 NSCLC) of the same compound?
**A.** 290 nM

**Q.** And the TGI (HOP-62 NSCLC)?
**A.** 709 nM

**Q.** What about the GI50 (TK-10 renal) of the same compound?
**A.** 273 nM

**Q.** What about the TGI (TK-10 renal) of the same compound?
**A.** 704 nM

**Q.** And the GI50 (A549 NSCLC)?
**A.** 348 nM

**Q.** And the TGI (A549 NSCLC)?
**A.** 11900 nM

**Q.** And the GI50 (HCC-2998 colon)?
**A.** 192 nM

**Q.** What about the TGI (HCC-2998 colon) of the same compound?
**A.** 367 nM
